pIC50: −log10 of the molar value.
Target: T1, CCR1 (Homo sapiens, UniProt P32246)
T1 construct: host or cells: non-adherent cells
T1 sequence (P32246 1-355): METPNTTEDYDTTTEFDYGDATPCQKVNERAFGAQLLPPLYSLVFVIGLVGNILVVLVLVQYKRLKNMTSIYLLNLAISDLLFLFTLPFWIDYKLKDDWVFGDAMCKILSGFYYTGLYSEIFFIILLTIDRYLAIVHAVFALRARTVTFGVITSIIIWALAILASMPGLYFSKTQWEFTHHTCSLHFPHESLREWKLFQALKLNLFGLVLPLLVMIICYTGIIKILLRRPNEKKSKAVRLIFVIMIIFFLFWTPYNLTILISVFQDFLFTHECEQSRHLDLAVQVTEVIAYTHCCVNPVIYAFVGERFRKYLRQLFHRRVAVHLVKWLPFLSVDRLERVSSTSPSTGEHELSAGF
Experiment: functional cellular assay measuring calcium flux in response to MIP1α in CCR1-transfected cells (Method A or Method B)
Assay type: cell-based
Settings: cells stably expressing recombinant CCR1 and G-alpha-16; MIP-1alpha added at EC80; method (A: FLIPR TETRA, B: FDSS6000) not stated per compound
Experimental: Compounds are assessed for the ability to block the interaction of CCR1 and its ligands in a functional cellular assay measuring calcium flux in response to MIP1α in CCR1-transfected cells.
Method A: Non-adherent cells purchased from Chemicon Corporation (HTS005C), stably expressing recombinant CCR1 and G-alpha-16 are grown in RPMI 1640 medium (Mediatech 10-080-CM) supplemented with 10% heat-inactivated FBS, 0.4 mg/mL Geneticin and penicillin/streptomycin. On the day of the assay, the cells are transferred to a beaker and dye-loaded in bulk using a Fluo-4 NW Calcium Assay Kit with probenecid (Invitrogen F36205) at 0.8E6 cells/mL for 1 hour at room temperature. After 1 hour, they are seeded in a 384-well tissue culture-treated plate at a density of 20,000 cells/well. Appropriately diluted test compound is added to the well to achieve a top concentration of 3,000 nM (diluted 3-fold with 10 doses total). The final concentration of DMSO is 1%. The buffer is HBSS (Invitrogen 14025) with 20 mM HEPES at pH 7.4. The cells are allowed to incubate 1 hour in the dark at room temperature. The plates are transferred to the FLIPR TETRA where MIP-1alpha in 1% BSA is added at the EC80 final concentration. Wells +/−MIP-1alpha containing diluted DMSO instead of compound serve as the controls. Intracellular calcium flux is recorded on the FLIPR TETRA, using excitation at 470/495 nm and emission at 515/575 nm. Data are analyzed using Activity Base software.
Method B: Non-adherent cells purchased from Chemicon Corporation (HTS005C), stably expressing recombinant CCR1 and G-alpha-16 are grown in RPMI 1640 medium (Mediatech 10-080-CM) supplemented with 10% FBS, 0.4 mg/mL Geneticin and penicillin/streptomycin. On the day of the assay, the cells are loaded with Calcium 4 dye (Molecular Devices R7448) with Probenecid (Invitrogen P346400) at 8E5 cells/mL for 1 hour at room temperature. After 1 hour, they are seeded in a 384-well tissue culture-treated plate at a density of 20,000 cells/well. Appropriately diluted test compound is added to the well to achieve a top concentration of 3,000 nM (diluted 4-fold with 10 doses total). The final concentration of DMSO is 1%. The buffer is HBSS (Invitrogen 14025) with 20 mM HEPES at pH 7.4. The cells incubate 30 minutes at 37 C and then 30 minutes at room temperature. The plates are transferred to the HAMAMATSU FDSS6000 where MIP-1alpha in 1% BSA is added at the EC80 final concentration. All plates must be read within 4 hours of the start of dye-loading. Wells +/−MIP-1alpha containing diluted DMSO instead of compound serve as the controls. Data are analyzed using Activity Base software.

pIC50	SMILES
7.27	Cc1c(C(=O)N[C@@H](C)c2cccc3ccccc23)cnn1-c1ccc(Cl)c(Cl)c1 [1-(3,4-Dichloro-phenyl)-5-methyl-1H-pyrazole-4-carboxylic acid ((S)-1-naphthalen-1-yl-ethyl)-amide]
7.07	CCCC(NC(=O)c1cnn(-c2ccc(Cl)cc2)c1C)c1ccc(S(=O)(=O)CCCO)nc1 (centres unmarked) [1-(4-Chloro-phenyl)-5-methyl-1H-pyrazole-4-carboxylic acid {1-[6-(3-hydroxy-propane-1-sulfonyl)-pyridin-3-yl]-butyl}-amide]
7.39	C=CCC[C@H](NC(=O)c1cnn(-c2ccc(Cl)c(Cl)c2)c1C)c1cccc(Br)c1 [1-(3,4-Dichloro-phenyl)-5-methyl-1H-pyrazole-4-carboxylic acid [(S)-1-(3-bromo-phenyl)-pent-4-enyl]-amide]
7.24	CC[C@H](NC(=O)c1cnn(-c2ccc(Cl)cc2)c1C)c1cnc(S(C)(=O)=O)s1 [1-(4-Chloro-phenyl)-5-methyl-1H-pyrazole-4-carboxylic acid [(S)-1-(2-methanesulfonyl-thiazol-5-yl)-propyl]-amide]
7.15	CCCC(NC(=O)c1cnn(-c2ccc(F)c(Cl)c2)c1C)c1ccc(S(C)(=O)=O)nc1 (centres unmarked) [1-(3-Chloro-4-fluoro-phenyl)-5-methyl-1H-pyrazole-4-carboxylic acid [1-(6-methanesulfonyl-pyridin-3-yl)-butyl]-amide]
7.29	CCCC(NC(=O)c1cnn(-c2ccc(Cl)cc2)c1C)c1ccnc(S(N)(=O)=O)c1 (centres unmarked) [1-(4-Chloro-phenyl)-5-methyl-1H-pyrazole-4-carboxylic acid [1-(2-sulfamoyl-pyridin-4-yl)-butyl]-amide]
8.64	CCCC(NC(=O)c1cnn(-c2ccc(Cl)cc2)c1C)c1ccnc(S(C)(=O)=O)c1 (centres unmarked) [1-(4-Chloro-phenyl)-5-methyl-1H-pyrazole-4-carboxylic acid [1-(2-methanesulfonyl-pyridin-4-yl)-butyl]-amide]
7.80	CCC[C@H](NC(=O)c1cnn(-c2ccc(Cl)cc2)c1CO)c1cccc(Br)c1 [1-(4-Chloro-phenyl)-5-hydroxymethyl-1H-pyrazole-4-carboxylic acid [(S)-1-(3-bromo-phenyl)-butyl]-amide]
8.28	CCCC(NC(=O)c1cnn(-c2ccc(Cl)c(Cl)c2)c1C)c1ccc(S(C)(=O)=O)nc1 (centres unmarked) [1-(3,4-Dichloro-phenyl)-5-methyl-1H-pyrazole-4-carboxylic acid [1-(6-methanesulfonyl-pyridin-3-yl)-butyl]-amide]
8.35	CCCC(NC(=O)c1cnn(-c2ccc(Cl)cc2)c1C)c1ccnc(S(=O)(=O)N(C)C)c1 (centres unmarked) [1-(4-Chloro-phenyl)-5-methyl-1H-pyrazole-4-carboxylic acid [1-(2-dimethylsulfamoyl-pyridin-4-yl)-butyl]-amide]
8.39	CCCC(NC(=O)c1cnn(-c2ccc(Cl)cc2)c1C)c1cncc(S(=O)(=O)NC)c1 (centres unmarked) [1-(4-Chloro-phenyl)-5-methyl-1H-pyrazole-4-carboxylic acid [1-(5-methylsulfamoyl-pyridin-3-yl)-butyl]-amide]
9.00	CCCC(NC(=O)c1cnn(-c2ccc(Cl)c(Cl)c2)c1C)c1cncc(S(C)(=O)=O)c1 (centres unmarked) [1-(3,4-Dichloro-phenyl)-5-methyl-1H-pyrazole-4-carboxylic acid [1-(5-methanesulfonyl-pyridin-3-yl)-butyl]-amide]
7.92	CCCC(NC(=O)c1cnn(-c2ccc(Cl)cc2)c1C)c1ccnc(S(=O)(=O)C2CC2)c1 (centres unmarked) [1-(4-Chloro-phenyl)-5-methyl-1H-pyrazole-4-carboxylic acid [1-(2-cyclopropanesulfonyl-pyridin-4-yl)-butyl]-amide]
7.72	CC[C@H](NC(=O)c1cnn(-c2ccc(Cl)cc2)c1C)c1ccnc(S(=O)(=O)NC)c1 [1-(4-Chloro-phenyl)-5-methyl-1H-pyrazole-4-carboxylic acid [(S)-1-(2-methylsulfamoyl-pyridin-4-yl)-propyl]-amide]
8.96	CCCC(NC(=O)c1cnn(-c2ccc(Cl)cc2)c1C)c1ccnc(Br)c1 (centres unmarked) [1-(4-Chloro-phenyl)-5-methyl-1H-pyrazole-4-carboxylic acid [1-(2-bromo-pyridin-4-yl)-butyl]-amide]
7.22	CCCC(NC(=O)c1cnn(-c2ccc(Cl)cc2)c1C)c1ccc(S(=O)(=O)CC)nc1 (centres unmarked) [1-(4-Chloro-phenyl)-5-methyl-1H-pyrazole-4-carboxylic acid [1-(6-ethanesulfonyl-pyridin-3-yl)-butyl]-amide]
7.28	CCCC(NC(=O)c1cnn(-c2ccc(Cl)cc2)c1C)c1ccc(S(=O)(=O)C2CC2)nc1 (centres unmarked) [1-(4-Chloro-phenyl)-5-methyl-1H-pyrazole-4-carboxylic acid [1-(6-cyclopropanesulfonyl-pyridin-3-yl)-butyl]-amide]
7.46	CCC[C@H](NC(=O)c1cnn(-c2ccc(Cl)cc2)c1C)c1ccc(S(C)(=O)=O)nc1 (stereo in doubt) [1-(4-Chloro-phenyl)-5-methyl-1H-pyrazole-4-carboxylic acid [1-(6-methanesulfonyl-pyridin-3-yl)-butyl]-amide]
8.19	CCC[C@H](NC(=O)c1cnn(-c2ccc(Cl)cc2)c1CO)c1cccc(C(F)(F)F)c1 [1-(4-Chloro-phenyl)-5-hydroxymethyl-1H-pyrazole-4-carboxylic acid [(S)-1-(3-trifluoromethyl-phenyl)-butyl]-amide]
7.80	CC[C@H](NC(=O)c1cnn(-c2ccc(Cl)c(Cl)c2)c1C)c1cccc(Br)c1 [1-(3,4-Dichloro-phenyl)-5-methyl-1H-pyrazole-4-carboxylic acid [(S)-1-(3-bromo-phenyl)-propyl]-amide]
7.89	CC[C@H](NC(=O)c1cnn(-c2ccc(Cl)cc2)c1C)c1ccc(F)c(C(F)(F)F)c1 [1-(4-Chloro-phenyl)-5-methyl-1H-pyrazole-4-carboxylic acid [(S)-1-(4-fluoro-3-trifluoromethyl-phenyl)-propyl]-amide]
7.52	C=CCCC[C@H](NC(=O)c1cnn(-c2ccc(Cl)cc2)c1C)c1cccc(C(F)(F)F)c1 [1-(4-Chloro-phenyl)-5-methyl-1H-pyrazole-4-carboxylic acid [(S)-1-(3-trifluoromethyl-phenyl)-hex-5-enyl]-amide]
7.01	CCCC(NC(=O)c1cnn(-c2ccc(Cl)cc2)c1C)c1ccc(S(=O)(=O)NCCO)nc1 (centres unmarked) [1-(4-Chloro-phenyl)-5-methyl-1H-pyrazole-4-carboxylic acid {1-[6-(2-hydroxy-ethylsulfamoyl)-pyridin-3-yl]-butyl}-amide]
8.23	CCCC(NC(=O)c1cnn(-c2ccc(F)c(Cl)c2)c1C)c1cncc(S(C)(=O)=O)c1 (centres unmarked) [1-(3-Chloro-4-fluoro-phenyl)-5-methyl-1H-pyrazole-4-carboxylic acid [1-(5-methanesulfonyl-pyridin-3-yl)-butyl]-amide]
7.14	CCCC(NC(=O)c1cnn(-c2ccc(Cl)cc2)c1C)c1cncc(S(=O)(=O)C(C)C)c1 (centres unmarked) [1-(4-Chloro-phenyl)-5-methyl-1H-pyrazole-4-carboxylic acid {1-[5-(propane-2-sulfonyl)-pyridin-3-yl]-butyl}-amide]
7.82	CCCC(NC(=O)c1cnn(-c2ccc(Cl)cc2)c1C)c1cncc(S(C)(=O)=O)c1 (centres unmarked) [1-(4-Chloro-phenyl)-5-methyl-1H-pyrazole-4-carboxylic acid [1-(5-methanesulfonyl-pyridin-3-yl)-butyl]-amide]
